Consider 12 compounds from ChEMBL document CHEMBL3045115, “Synthesis and antimycobacterial activity of novel 4-[5-(substituted phenyl)-1-phenyl-4,5-dihydro-1H-3-pyrazolyl]-2-methylphenol derivatives” (2006).

Structures are written as SMILES. Converted amounts (≈) assume the structure as drawn.

The test system of the experiment is Mycobacterium tuberculosis. Description: Antimycobacterial activity against isoniazid-resistant Mycobacterium tuberculosis H37Rv ATCC 27294 using alamar blue staining by broth microdilution assay. It is filed as functional. (Alamar Blue is a resazurin reagent that responds to reducing activity.)
Broadly, the MIC is the lowest concentration that inhibits growth of the organism. Read a high MIC as weaker potency. Regarding `COc1ccc(C2CC(c3ccc(O)c(C)c3)=NN2c2ccccc2)cc1` (configuration not stated), the MIC was found to be 1.45 µg/mL (≈ 4.05 µM).

Compound `Cc1cc(C2=NN(c3ccccc3)C(c3ccc(Cl)cc3)C2)ccc1O` (configuration not stated) returned an MIC of 1.24 µg/mL (≈ 3.42 µM).

Regarding `Cc1cc(C2=NN(c3ccccc3)C(c3ccc(N(C)C)cc3)C2)ccc1O` (configuration not stated), 0.84 µg/mL (≈ 2.26 µM) was the least that counted as inhibitory (MIC).

Consider `Cc1cc(C2=NN(c3ccccc3)C(c3ccccc3)C2)ccc1O` (configuration not stated), for which 1.6 µg/mL (≈ 4.87 µM) was the least that counted as inhibitory (MIC).

As for `COc1ccc(C2CC(c3ccc(O)c(C)c3)=NN2c2ccccc2)cc1OC` (configuration not stated), the minimal inhibitory concentration (MIC) came out at 1.16 µg/mL (≈ 2.99 µM).

In the case of `COc1cc(C2CC(c3ccc(O)c(C)c3)=NN2c2ccccc2)cc(OC)c1OC` (configuration not stated), the minimum inhibitory concentration (MIC) was 1.86 µg/mL (≈ 4.44 µM).

Take `Cc1cc(C2=NN(c3ccccc3)C(c3ccc(F)cc3)C2)ccc1O` (configuration not stated): the minimum inhibitory concentration (MIC) was determined as 0.62 µg/mL (≈ 1.79 µM).

On to `Cc1cc(C2=NN(c3ccccc3)C(c3ccccc3Cl)C2)ccc1O` (configuration not stated), for which 1 µg/mL (≈ 2.76 µM) was the least that counted as inhibitory (MIC).

`Cc1cc(C2=NN(c3ccccc3)C(c3c(Cl)cccc3Cl)C2)ccc1O` (configuration not stated): the MIC stood at 0.92 µg/mL (≈ 2.32 µM).

Turning to `Cc1cc(C2=NN(c3ccccc3)C(c3cccc([N+](=O)[O-])c3)C2)ccc1O` (configuration not stated), 1.96 µg/mL (≈ 5.25 µM) was the least that counted as inhibitory (MIC).

With `Cc1cc(C2=NN(c3ccccc3)C(c3ccco3)C2)ccc1O` (configuration not stated), the minimum inhibitory concentration (MIC) came to 0.81 µg/mL (≈ 2.54 µM).

As for `NNC(=O)c1ccncc1` [ISONIAZID], 0.63 µg/mL (≈ 4.59 µM) was the least that counted as inhibitory (MIC).
